1 substance from patent US10570213B2, “Methods of treating cancers using PD-1 axis binding antagonists and taxanes” (Genentech, Inc., priority 2013, dated 2020) can be followed below.

The subject of this experiment is MC38 colorectal tumor. Description: syngeneic MC38 colorectal tumor model in C57BL/6 mice. The class given is in vivo. As to conditions: FIG. 1 experiment.

Description: Mice with established subcutaneous MC38 tumors of approximately 100-200 mm^3 were treated with single-dose carboplatin at 80 mg/kg by intraperitoneal (IP) injection plus paclitaxel at 10 mg/kg injected intravenously (IV), and anti-gp120 antibody or anti-PD-L1 (clone 25A1 mIgG2a.DANA) at 10 mg/kg dosed 3 times a week for 3 weeks. N=10 mice/group.
Mice with established subcutaneous MC38 tumors of approximately 100-200 mm^3 were treated with a single dose of either saline or dexamethasone at 4 mg/kg IV and 12 hours later, treated with either control anti-gp120 antibody or anti-PD-L1 (clone 25A1.mIgG2a.DANA) at 10 mg/kg IP 3 times a week for 3 weeks. N=10 mice/group.
Mice with established subcutaneous MC38 tumors of approximately 300 mm^3 were treated with anti-gp120 control antibody or anti-PD-L1 antibody (clone YW243.55.570 mIgG2a.DANA) administered by IP injection at 10 mg/kg 3 times a week for 3 weeks, plus saline or carboplatin at 75 mg/kg IP weekly for 3 weeks plus ABRAXANE® at 15 mg/kg iv weekly for 3 weeks, as indicated. N=8 mice/group.
MC38 colorectal tumor cell lines were maintained at Genentech. 7-10 week old C57BL/6 female mice (Charles River Laboratories; Hollister, Calif.) were inoculated subcutaneously in the right unilateral flank with 0.1 million MC38 cells. […]

In the case of paclitaxel+carboplatin, the “mice with partial response (in words)” value (N=10 mice/group) is listed as “no mice”. The “time to progression (TTP), 5× the initial tumor volume” value (tumors approximately 100-200 mm^3 at start, anti-PD-L1 clone 25A1) is reported as 15.5 days.
